According to ChEMBL document CHEMBL1151426, “Pharmacodynamics of doxycycline in a murine malaria model” (Antimicrob Agents Chemother, 2007):
Calls of active or inactive are those of the source. The rule behind the calls is not given here.

Columns and labels:
Mus musculus [1] = experiment: Toxicity in Plasmodium berghei ANKA infected Swiss mice (Mus musculus) assessed as median time for adverse effect at 30 mg/kg, intraperitoneally administered as single dose 64 hrs after infection measured after 24 hrs; type: organism-based; design: dose 30 mg/kg, route intraperitoneal; conditions: in vivo, ip
Plasmodium berghei [2] = experiment: Antimalarial activity as reduced parasitaemia after 24hrs against Plasmodium berghei ANKA infected Swiss mice (Mus musculus) at 30 mg/kg intraperitoneal single dose 64 hrs post infection; type: functional, organism-based; design: dose 30 mg/kg
Plasmodium berghei [3] = experiment: Antimalarial activity as parasitaemia nadir after 24 hrs against Plasmodium berghei ANKA infected Swiss mice (Mus musculus) at 30 mg/kg intraperitoneal single dose 64 hrs post infection; type: functional
Plasmodium berghei [4] = experiment: Antimalarial activity as parasitaemia against Plasmodium berghei ANKA infected Swiss mice (Mus musculus) at 30 mg/kg intraperitoneal single dose 64 hrs post infection (Rvb=2.5%+/-0.5%); type: functional
[5] = Half life in Plasmodium falciparum infected human at 200 mg/day, perorally after 7 days; type: ADME, organism-based; conditions: in vivo, po
Plasmodium berghei [6] = experiment: Antimalarial activity as reduced parasitaemia against Plasmodium berghei ANKA infected Swiss mice (Mus musculus) up to 180 mg/kg intraperitoneal single dose 64 hrs post infection; type: functional, organism-based; design: dose 180 mg/kg
Mus musculus [7] = experiment: Toxicity in Plasmodium berghei ANKA infected Swiss mice (Mus musculus) assessed as adverse effect at 90 mg/kg, intraperitoneally administered at 1,12 and 24 hrs after 64 hrs postinfection; type: organism-based; design: dose 90 mg/kg, route intraperitoneal; conditions: in vivo, ip
Plasmodium berghei [8] = experiment: Antimalarial activity as parasitaemia nadir against Plasmodium berghei ANKA infected Swiss mice (Mus musculus) at 90 mg/kg intraperitoneal dose 65, 76 and 88 hrs post infection; type: functional
Plasmodium berghei [9] = experiment: Antimalarial activity as parasitaemia against Plasmodium berghei ANKA infected Swiss mice (Mus musculus) at 90 mg/kg intraperitoneal dose 65, 76 and 88 hrs post infection (Rvb=2.5%+/-0.5%); type: functional
[10] = Half life in Plasmodium falciparum infected human dosed every 24 hrs after 48 hrs of infection; type: ADME, organism-based; conditions: in vivo
[11] = Half life in healthy mouse at 50 mg/kg; type: ADME, organism-based; design: dose 50 mg/kg; conditions: in vivo
Mus musculus [12] = experiment: Toxicity in Plasmodium berghei ANKA infected Swiss mice (Mus musculus) assessed as discomfort at 180 mg/kg, intraperitoneally administered as single dose 64 hrs after infection; type: organism-based; design: dose 180 mg/kg, route intraperitoneal; conditions: in vivo, ip
Plasmodium berghei [13] = experiment: Antimalarial activity as reduced parasitaemia against Plasmodium berghei ANKA infected Swiss mice (Mus musculus) at 90 mg/kg intraperitoneal dose at 65, 76 and 88 hrs post infection; type: functional, organism-based; design: dose 90 mg/kg
Mus musculus [14] = experiment: Toxicity in Plasmodium berghei ANKA infected Swiss mice (Mus musculus) assessed as median time for adverse effect at 90 mg/kg, intraperitoneally administered at 1,12 and 24 hrs after 64 hrs postinfection; type: organism-based; design: dose 90 mg/kg, route intraperitoneal; conditions: in vivo, ip

half-life [5] [h]	half-life [10] [h]	half-life [11] [h]	Compound	Activity (Mus musculus [1]) [days]	Activity (Plasmodium berghei [2])	Activity (Plasmodium berghei [3]) [%]	Activity (Plasmodium berghei [4]) [%]	Activity (Plasmodium berghei [6])	Activity (Mus musculus [7])	Activity (Plasmodium berghei [8]) [%]	Activity (Plasmodium berghei [9]) [%]	Activity (Mus musculus [12])	Activity (Plasmodium berghei [13])	Time (Mus musculus [14]) [days]
			C[C@H]1[C@@H](O)O[C@@H]2O[C@@]3(C)CC[C@H]4[C@H](C)CC[C@@H]1[C@@]24OO3 [ARTENIMOL]	1	Active	0.53	2.6							
14	10.5	2.8	C[C@H]1c2cccc(O)c2C(=O)C2=C(O)[C@]3(O)C(=O)C(C(N)=O)=C(O)[C@@H](N(C)C)[C@@H]3[C@@H](O)[C@@H]21.O [DOXYCYCLINE]					inactive	Non-toxic	0.06	3	Toxic	Active	6
